# Reference: US10047087B2, “Substituted pyrazolo[1,5-A] pyridine as tropomyosin receptor kinase (TrK) inhibitors” (Dr. Reddy's Laboratories Ltd., priority 2011, dated 2018)
# Target: T1, TrkA kinase (Homo sapiens, UniProt P04629)
# T1 construct: purchased Upstate, USA
# Assay: In vitro TrkA inhibitory activity using TR-FRET assay
# Format: biochemical
# Settings: 5 ng TrkA, 500 μM ATP, both bounds given in nm, read-out: TrkA inhibitory activity in-vitro IC50
# Procedure: Determination of In Vitro TrkA Inhibitory Activity Using TR-FRET Assay
# Compounds were screened in the TR-FRET assay with TrkA kinase. 5 ng of TrkA [Upstate, USA] kinase was used for assay. The compound was incubated with the kinase for 30 minutes at 20-35° C. After the incubation, substrate mix [40 nM Ultra light poly GT (Perkin Elmer, USA) and 500 μM ATP] was added. The above reaction was stopped by the addition of 40 mM EDTA after 30 minutes. The Eu-labelled antiphospho-tyrosine antibody [Perkin Elmer, USA] was added at 0.5 nM and the fluorescence emission at 615 nm/665 nm [excitation at 340 nm] was measured. The compounds were initially screened at 100 nM, 1 μM and 10 μM concentrations. The potent compounds with >25% inhibition at 1 μM of TrkA were taken for the full dose response studies. The final DMSO concentration in the assay was […]. For IC50 determination, ⅓^rd serial dilution was made from the 20 mM DMSO stock solution. 2 μl of these were transferred to the test wells containing 20 μl reaction mixture [Total reaction volume 22 μl]. The fluorescence was measured in Perkin Elmer Wallac 1420 Multilabel Counter Victor 3. The IC50 was determined by fitting the dose response data to a sigmoidal curve fitting equation using GraphPad Prism software version 5.
# T1 sequence (P04629 33-796): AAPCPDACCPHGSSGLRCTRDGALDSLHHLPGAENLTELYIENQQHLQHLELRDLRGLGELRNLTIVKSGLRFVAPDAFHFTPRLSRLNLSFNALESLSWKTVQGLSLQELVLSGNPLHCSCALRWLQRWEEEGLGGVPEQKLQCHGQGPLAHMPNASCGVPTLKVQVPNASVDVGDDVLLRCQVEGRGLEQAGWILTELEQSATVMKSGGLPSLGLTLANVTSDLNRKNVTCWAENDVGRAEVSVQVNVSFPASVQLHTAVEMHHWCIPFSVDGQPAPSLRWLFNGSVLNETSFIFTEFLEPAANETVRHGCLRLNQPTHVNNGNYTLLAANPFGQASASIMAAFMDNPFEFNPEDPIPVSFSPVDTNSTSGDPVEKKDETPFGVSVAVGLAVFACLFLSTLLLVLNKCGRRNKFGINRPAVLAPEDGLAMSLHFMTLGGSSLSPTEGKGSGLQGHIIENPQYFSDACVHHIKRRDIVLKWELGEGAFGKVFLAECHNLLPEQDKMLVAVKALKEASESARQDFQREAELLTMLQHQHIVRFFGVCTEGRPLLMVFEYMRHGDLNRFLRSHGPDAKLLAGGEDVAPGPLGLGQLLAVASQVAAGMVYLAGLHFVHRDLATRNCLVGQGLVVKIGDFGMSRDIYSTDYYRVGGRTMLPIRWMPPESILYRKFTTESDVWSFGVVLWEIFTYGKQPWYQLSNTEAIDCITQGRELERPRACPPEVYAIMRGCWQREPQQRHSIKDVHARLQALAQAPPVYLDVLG
row,SMILES,IC50 [µM]
1,"O=C(NS(=O)(=O)N1CC[C@H](O)C1)c1cnn2ccc(N3CCC[C@@H]3c3cc(F)ccc3F)cc12 [Example 93, 5-((R)-2-(2,5-difluorophenyl)pyrrolidin-1-yl)-N-(((S)-3-hydroxypyrrolidin-1-yl)sulfonyl)pyrazolo[1,5-a] pyridine-3-carboxamide]",0.1 to 0.5
2,"CC(C)(C)S(=O)(=O)NC(=O)c1cnn2ccc(N3CCC[C@@H]3c3cc(F)ccc3F)c(F)c12 [Example 61, (R)-N-(tert-butylsulfonyl)-5-(2-(2,5-difluorophenyl)pyrrolidin-1-yl)-4-fluoro pyrazolo[1,5-a] pyridine-3-carboxamide]",0.1 to 0.5
3,"O=C(NS(=O)(=O)C1CCOCC1)c1cnn2ccc(N3CCC[C@@H]3c3cc(F)ccc3F)cc12 [Example 22, (R)-5-(2-(2,5-difluorophenyl)pyrrolidin-1-yl)-N-((tetrahydro-2H-pyran-4-yl)sulfonyl) pyrazolo[1,5-a]pyridine-3-carboxamide]",0.1 to 0.5
4,"O=C(NS(=O)(=O)c1ccc(-n2cncn2)nc1)c1cnn2ccc(N3CCC[C@@H]3c3cc(F)cc(F)c3)cc12 [Example 72, (R)-N-((6-(1H-1,2,4-triazol-1-yl)pyridin-3-yl)sulfonyl)-5-(2-(3,5-difluorophenyl)pyrrolidin-1-yl)pyrazolo[1,5-a]pyridine-3-carboxamide]",0.1 to 0.5
5,"CC(C)(C)S(=O)(=O)NC(=O)c1cnn2ccc(N3CCC[C@@H]3c3cc(F)ccc3-c3ccc(F)cc3)cc12 [Example 54, (R)-N-(tert-butylsulfonyl)-5-(2-(4,4′-difluoro-[1,1′-biphenyl]-2-yl)pyrrolidin-l-yl)pyrazolo[1,5-a]pyridine-3-carboxamide]",0.1 to 0.5
6,"Cn1nccc1S(=O)(=O)NC(=O)c1cnn2ccc(N3CCC[C@@H]3c3cc(F)ccc3F)cc12 [Example 19, (R)-5-(2-(2,5-difluorophenyl)pyrrolidin-1-yl)-N-((1-methyl-1H-pyrazol-5-yl)sulfonyl) pyrazolo[1,5-a]pyridine-3-carboxamide]",0.1 to 0.5
7,"CC(C)(C)S(=O)(=O)NC(=O)c1cnn2ccc(N3CC(F)(F)CC3c3cc(F)ccc3F)cc12 (stereo not shown) [Example 133, Sodium (tert-butylsulfonyl)(5-(2-(2,5-difluorophenyl)-4,4-difluoropyrrolidin-1-yl)pyrazolo[1,5-a]pyridine-3-carbonyl)amide]",0.1 to 0.5
8,"CC(C)(C)CS(=O)(=O)NC(=O)c1cnn2ccc(N3CCC[C@@H]3c3cc(F)ccc3F)cc12 [Example 37, (R)-5-(2-(2,5-difluorophenyl)pyrrolidin-1-yl)-N-(neopentylsulfonyl) pyrazolo[1,5-a]pyridine-3-carboxamide]",0.1 to 0.5
9,"CC(C)S(=O)(=O)NC(=O)c1cnn2ccc(N3CCC[C@@H]3c3cc(F)cc(F)c3)cc12 [Example 71, (R)-5-(2-(3,5-difluorophenyl)pyrrolidin-1-yl)-N-(isopropylsulfonyl)pyrazolo[1,5-a] pyridine-3-carboxamide]",0.1 to 0.5
10,"Cc1noc(C)c1S(=O)(=O)NC(=O)c1cnn2ccc(N3CCC[C@@H]3c3cc(F)ccc3F)cc12 [Example 11, (R)-5-(2-(2,5-difluorophenyl)pyrrolidin-1-yl)-N-((3,5-dimethylisoxazol-4-yl)sulfonyl) pyrazolo[1,5-a]pyridine-3-carboxamide]",0.1 to 0.5
11,"CN(C)c1ccc(S(=O)(=O)NC(=O)c2cnn3ccc(N4CCC[C@@H]4c4cc(F)ccc4F)cc23)cn1 [Example 23, (R)-5-(2-(2,5-difluorophenyl)pyrrolidin-1-yl)-N-((6-(dimethylamino)pyridin-3-yl)sulfonyl)pyrazolo[1,5-a] pyridine-3-carboxamide]",0.1 to 0.5
12,"CC(C)(C)S(=O)(=O)NC(=O)c1cnn2ccc(N3CCC[C@@H]3c3cc(F)cc4c3OCCO4)cc12 [Example 130, Sodium (R)-(tert-butylsulfonyl)(5-(2-(7-fluoro-2,3-dihydrobenzo[b][1,4]dioxin-5-yl)pyrrolidin-1-yl)pyrazolo[1,5-a]pyridine-3-carbonyl)amide]",0.1 to 0.5
13,"CC(C)(C)S(=O)(=O)NC(=O)c1cnn2ccc(N3CC(F)(F)CC3c3cc(F)ccc3F)cc12 (single isomer, unassigned) [Example 56]",0.1 to 0.5

# Same assay, conditions: 5 ng TrkA, 500 μM ATP, lower bound in nm [sic], upper bound in μM, read-out: TrkA inhibitory activity in-vitro IC50
row,SMILES,IC50 [µM]
1,"O=C(NS(=O)(=O)c1cccnc1)c1cnn2ccc(N3CCC[C@@H]3c3cc(F)ccc3F)cc12 [Example 30, (R)-5-(2-(2,5-difluorophenyl)pyrrolidin-1-yl)-N-(pyridin-3-ylsulfonyl)pyrazolo[1,5-a]pyridine-3-carboxamide]",0.5 to 1
2,"CC(C)(C)S(=O)(=O)NC(=O)c1cnn2ccc(N3CCC[C@@H]3c3cc(F)cc(OC4CCOC4)c3)cc12 (stereo partly drawn) [Example 68, N-(tert-butylsulfonyl)-5-((2R)-2-(3-fluoro-5-((tetrahydrofuran-3-yl)oxy)phenyl)pyrrolidin-1-yl)pyrazolo[1,5-a]pyridine-3-carboxamide]",0.5 to 1
3,"O=C(NS(=O)(=O)c1ccc(F)cc1)c1cnn2ccc(N3CCC[C@@H]3c3cc(F)cc(F)c3)cc12 [Example 69, (R)-5-(2-(3,5-difluorophenyl)pyrrolidin-1-yl)-N-((4-fluorophenyl)sulfonyl)pyrazolo[1,5-a]pyridine-3-carboxamide]",0.5 to 1
4,"Cc1nc(S(=O)(=O)NC(=O)c2cnn3ccc(N4CCC[C@@H]4c4cc(F)ccc4F)cc23)cn1C [Example 15, (R)-5-(2-(2,5-difluorophenyl)pyrrolidin-1-yl)-N-((1,2-dimethyl-1H-imidazol-4-yl)sulfonyl)pyrazolo[1,5-a] pyridine-3-carboxamide]",0.5 to 1
5,"CC(C)(C)S(=O)(=O)NC(=O)c1cnn2ccc(N3C[C@H](O)C[C@@H]3c3cc(F)ccc3F)cc12 [Example 48, N-(tert-butylsulfonyl)-5-((2R,4R)-2-(2,5-difluorophenyl)-4-hydroxypyrrolidin-1-yl)pyrazolol[1,5-a]pyridine-3-carboxamide]",0.5 to 1

# Same assay, conditions: 5 ng TrkA, 500 μM ATP, read-out: TrkA inhibition in-vitro IC50
row,SMILES,IC50 [µM]
1,"CC(C)(C)S(=O)(=O)NC(=O)c1cnn2ccc(N3C[C@@H](F)C[C@@H]3c3cc(F)ccc3F)cc12 [Example 128, Sodium (tert-butylsulfonyl)(5-((2R,4S)-2-(2,5-difluorophenyl)-4-fluoropyrrolidin-1-yl)pyrazolo[1,5-a]pyridine-3-carbonyl)amide]",≤ 0.05
2,"CC(C)(C)S(=O)(=O)NC(=O)c1cnn2ccc(N3C[C@@H](F)C[C@@H]3c3cccc(F)c3)c(F)c12 [Example 137, Sodium (tert-butylsulfonyl)(4-fluoro-5-((2R,4S)-4-fluoro-2-(3-fluorophenyl)pyrrolidin-1-yl)pyrazolo[1,5-a]pyridine-3-carbonyl)amide]",≤ 0.05
3,"CC(C)S(=O)(=O)NC(=O)c1cnn2ccc(N3C[C@@H](F)C[C@@H]3c3cccc(F)c3)c(F)c12 [Example 141, Sodium (4-fluoro-5-((2R,4S)-4-fluoro-2-(3-fluorophenyl)pyrrolidin-1-yl)pyrazolo[1,5-a]pyridine-3-carbonyl) (isopropylsulfonyl)amide]",≤ 0.05
4,"Cc1ccccc1S(=O)(=O)NC(=O)c1cnn2ccc(N3CCC[C@@H]3c3cc(F)ccc3F)cc12 [Example 140, Sodium (R)-(5-(2-(2,5-difluorophenyl)pyrrolidin-1-yl)pyrazolo[1,5-a]pyridine-3-carbonyl)(o-tolylsulfonyl)amide]",≤ 0.05
5,"O=C(NS(=O)(=O)C1(Cc2ccc(F)cc2)CC1)c1cnn2ccc(N3CCC[C@@H]3c3cc(F)ccc3F)cc12 [Example 41, (R)-5-(2-(2,5-difluorophenyl)pyrrolidin-1-yl)-N-((1-(4-fluorobenzyl)cyclopropyl)sulfonyl) pyrazolo[1,5-a]pyridine-3-carboxamide]",≤ 0.05
6,"CCN(CC)S(=O)(=O)NC(=O)c1cnn2ccc(N3CCC[C@@H]3c3cc(F)ccc3OCCF)cc12 [Example 88, (R)-N-(N,N-diethylsulfamoyl)-5-(2-(5-fluoro-2-(2-fluoroethoxy)phenyl)pyrrolidin-1-yl)pyrazolo[1,5-a]pyridine-3-carboxamide]",≤ 0.05
7,"CC(C)(C)S(=O)(=O)NC(=O)c1cnn2ccc(N3CCC[C@@H]3c3cc(F)ccc3OC3CCOC3)cc12 (stereo partly drawn) [Example 60, N-(tert-butylsulfonyl)-5-((2R)-2-(5-fluoro-2-((tetrahydrofuran-3-yl)oxy)phenyl)pyrrolidin-1-yl)pyrazolo[1,5-a]pyridine-3-carboxamide]",0.05 to 0.1
8,"O=C(NS(=O)(=O)c1ccc(Cl)s1)c1cnn2ccc(N3CCC[C@@H]3c3cc(F)ccc3F)cc12 [Example 31, (R)-N-((5-chlorothiophen-2-yl)sulfonyl)-5-(2-(2,5-difluorophenyl)pyrrolidin-1-yl)pyrazolo [1,5-a]pyridine-3-carboxamide]",≤ 0.05

# Same assay, conditions: 5 ng TrkA, 500 μM ATP, read-out: TrkA inhibitory activity in-vitro IC50
row,SMILES,IC50 [µM]
1,"CC(C)(C)S(=O)(=O)NC(=O)c1cnn2ccc(N3CC(F)C[C@@H]3c3cc(F)ccc3F)cc12 (stereo partly drawn) [Example 135, Sodium (tert-butylsulfonyl)(5-((2R)-2-(2,5-difluorophenyl)-4-fluoropyrrolidin-1-yl)pyrazolo[1,5-a]pyridine-3-carbonyl)amide]",1 to 10
2,"CC(C)(C)S(=O)(=O)NC(=O)c1cnn2ccc(N3CC(F)(F)CC3c3cc(F)ccc3F)cc12 (single isomer, unassigned) [Example 55]",1 to 10
